{"source": "patent US11090321B2", "about": "“Mixture of non-digestible oligosaccharides for stimulating the immune system” (N.V. Nutricia, priority 2009, dated 2021)", "test_system": "C57BL/6 mice", "assay": "Delayed-type hypersensitivity (DTH) ear swelling response after Influvac vaccination in diet-supplemented mice", "type": "in vivo, mouse", "description": "The effect of diets comprising 2′-FL and/or betagalacto-oligosaccharides was tested in a mouse model wherein a response to an antigen is measured by a delayed-type hypersensitivity (DTH) response. This DTH response in the ears after local challenge with an antigen present in a vaccine is a measure of Th1 cell proliferation. During response to infection and/or vaccination Th1 cells proliferate in response to the challenge with the antigen. These Th1 cells infiltrate the ear when the ear is subsequently challenged with the antigen and cause swelling. Infiltration with the Th1 cells in the ear takes about 24 h and the swelling is therefore delayed. The more Th1 cells proliferated during initial vaccination and/or infection, the more DTH upon challenging with the antigen is observed.\n6-8 Weeks old female C57BL/6 mice (Charles River) received semi-purified AIN-93G-based diets (Research Diet Service, Wijk bij Duurstede, the Netherlands), comprising\n1) 1 wt % betagalacto-oligosaccharide (GOS, source Vivinal GOS, Borculo Domo), fructo-oligosaccharide (FOS, Source RaftilineHP, Orafti) and galacturonic acid oligosaccharide (source AOS) in a 9:1:1.1 ratio. AOS were produced from pectin (Südzucker AG, Mannheim, Germany), with a DP of 1-20. It consists of approximately 75% galacturonic acid oligomers, based on total weight,\n2) 1 wt % 2′fucosyllactose (2′-FL),\n3) 1 wt % betagalacto-oligosaccharides, fructo-oligosaccharides and galacturonic acid oligosaccharide (AOS) in a 9:1:1.1 ratio and 1 wt % 2′-FL.\n4) 0.5 wt % betagalacto-oligosaccharides, fructo-oligosaccharides and galacturonic acid oligosaccharide (AOS) in a 9:1:1.1 ratio and 0.5 wt % 2′-FL.\nAll groups were compared to the unsupplemented control diet (control and sham control group). Dietary supplementation started 14 days before the first vaccination and lasted until the end of the experiment, 31 days after the first vaccination.\nVaccination experiments were performed using Influvac (Solvay Pharmaceuticals, Weesp, the Netherlands) from season 2005/2006. The mice received a primary vaccination and a booster vaccination, consisting of a subcutaneous (sc) injection of a 1:1 mix of vaccine and adjuvant in a total volume of 100 μl. The booster vaccination was given at 21 days after the primary vaccination. The experiments ended 10 days after booster vaccination. Negative control groups that were included received injections with a 1:1 mix of PBS and adjuvant in a total volume of 100 μl (sham control). Ear thickness was measured in duplicate before vaccine challenge and 24 h thereafter, using a digital micrometer (Mitutoyo Digimatic 293561, Veenendaal, the Netherlands). The DTH response was calculated by subtracting the basal ear thickness from the value at 24 h after challenge."}
{"substance": "2′-fucosyllactose [1% 2′-FL]", "values": [{"measurement": "increase of DTH response", "setting": "compared with control diet", "result": 71, "unit": "%"}, {"measurement": "effect on ear swelling / DTH response (in words)", "setting": "compared with control-fed animals", "result": "increased ear swelling"}, {"measurement": "Δ DTH", "setting": "ear swelling DTH minus sham control", "result": 80.4, "unit": "μm"}, {"measurement": "Relative DTH", "setting": "Δ DTH relative to control diet (=1)", "result": 1.71}]}
